This note sets out measurements from US20240148821A1, “PHARMACEUTICAL USE OF CYCLIC PEPTIDE COMPOUND” (CHUGAI SEIYAKU KABUSHIKI KAISHA, priority 2021, published 2024).

Numbered stars: 1 amine (or outer) side, 2 acyl side, 3 side chain; on linkers, the order of the positions; unused ones are H or OH. Bridge positions count the residues as written; N and C are the ends. Square brackets hold non-standard residues; d marks the D form. Peptide text beside a SMILES is read from it. * marks the point of attachment. hPhe(3-Cl-4-CF3) = N[C@@H](CCc1ccc(C(F)(F)F)c(Cl)c1)C(=O)O; hPhe(3-F,4-CF3) = N[C@@H](CCc1ccc(C(F)(F)F)c(F)c1)C(=O)O; NMeAla(4-thiazolyl) = CN[C@@H](Cc1cscn1)C(=O)O; X72 = O=C([C@@H]1Cc2ccccc2N1[*:1])[*:2]; NMeGly(cPent) = CN[C@H](C(=O)O)C1CCCC1; NMeAla(cPr) = CN[C@@H](CC1CC1)C(=O)O; NMeCha = CN[C@@H](CC1CCCCC1)C(=O)O; NMeChg = CN[C@H](C(=O)O)C1CCCCC1; NMeD = CN[C@@H](CC(=O)O)C(=O)O; NMeL = CN[C@@H](CC(C)C)C(=O)O; NMeV = CN[C@H](C(=O)O)C(C)C; d(β3hA) = C[C@@H](N)CC(=O)O; Azetidin(1-yl) = C1CN(*)C1; NMeA = CN[C@@H](C)C(=O)O; NMeAib = CNC(C)(C)C(=O)O; Piperidide = C1CCN(*)CC1; Pyrrolidide = C1CCN(*)C1; dNMeA = CN[C@H](C)C(=O)O; Ac5c = NC1(C(=O)O)CCCC1; Aze = O=C(O)[C@@H]1CCN1; Aib = CC(C)(N)C(=O)O; NEtG = CCNCC(=O)O; Sar = CNCC(=O)O Where only a bound is given, the exact number is not on record here.

For this assay, the system named is Human pancreatic cancer cell line AsPC-1 (G12D mutation Kras). The assay is described as follows: AsPC-1 cell growth inhibition (AsPC-1 CGI). The class given is cell-based. The conditions noted are these: read-out: AsPC-1 cell growth inhibition, 50% growth inhibitory concentration (IC50 value); 96 hours, CellTiter-Glo, values classified in ranges.
Experimental: Test compounds were serially dilated with dimethyl sulfoxide, and 200 nL was then dispensed to a U-bottom 96-well plate using Labcyte Echo. […] The cell suspension was dispensed to a. plate containing a test compound at 100 μL per well and incubated at 37° C. in a 5% carbon dioxide gas incubator. 96 hours later, 80 μL of CellTiter-Glo (Promega) was added to each well and fluorescence was measured.
Turning to `CC[C@H](C)[C@@H]1NC(=O)[C@H](CC(C)C)N(C)C(=O)C[C@@H](C(=O)N2CCCCC2)N(C)C(=O)[C@H](C2CCCCC2)N(C)C(=O)C2(CCCC2)NC(=O)[C@H](Cc2cscn2)N(C)C(=O)[C@H](CCc2ccc(C(F)(F)F)c(Cl)c2)NC(=O)CN(C)C(=O)[C@H](CC2CCCCC2)N(C)C(=O)CN(C)C(=O)CN(C)C1=O` [Compound 500] ([NMeL]I[Sar][Sar][NMeCha][Sar][hPhe(3-Cl-4-CF3)][NMeAla(4-thiazolyl)][Ac5c][NMeChg][NMeD]-Piperidide; lactam N-11), the IC50 is above 500 nM. `CC[C@H](C)[C@@H]1NC(=O)[C@H](CC(C)C)N(C)C(=O)C[C@@H](C)NC(=O)[C@H](C(C)C)N(C)C(=O)C2(CCCC2)NC(=O)[C@@H]2CCCN2C(=O)[C@H](CCc2ccc(C(F)(F)F)c(Cl)c2)NC(=O)CN(C)C(=O)[C@H](CC2CCCCC2)N(C)C(=O)CN(CC)C(=O)CN(C)C1=O` [Compound 504] (cyclo([Ac5c][NMeV][d(β3hA)][NMeL]I[Sar][NEtG][NMeCha][Sar][hPhe(3-Cl-4-CF3)]P)): the IC50 was above 500 nM.

Regarding `CC[C@H](C)[C@@H]1NC(=O)[C@H](C)N(C)C(=O)C[C@@H](C(=O)N2CCCCC2)N(C)C(=O)[C@H](C(C)C)N(C)C(=O)C(C)(C)N(C)C(=O)[C@@H]2CCCN2C(=O)[C@H](CCc2ccc(C(F)(F)F)c(Cl)c2)NC(=O)CN(C)C(=O)[C@H](CC2CCCCC2)N(C)C(=O)CN(C)C(=O)CN(C)C1=O` [Compound 507] ([NMeA]I[Sar][Sar][NMeCha][Sar][hPhe(3-Cl-4-CF3)]P[NMeAib][NMeV][NMeD]-Piperidide; lactam N-11), the IC50 was above 500 nM.

As for `CC[C@H](C)[C@@H]1NC(=O)[C@H](CC(C)C)N(C)C(=O)C[C@@H](C(=O)N2CCCC2)NC(=O)[C@H](C(C)C)N(C)C(=O)C2(CCCC2)NC(=O)[C@@H]2CCCN2C(=O)[C@H](CCc2ccc(C(F)(F)F)c(Cl)c2)NC(=O)CN(C)C(=O)[C@H](CC2CCCCC2)N(C)C(=O)CN(C)C(=O)CN(C)C1=O` [Compound 508] ([NMeL]I[Sar][Sar][NMeCha][Sar][hPhe(3-Cl-4-CF3)]P[Ac5c][NMeV]D-Pyrrolidide; lactam N-11), the IC50 is above 500 nM. The figure for `CC[C@H](C)[C@@H]1NC(=O)[C@H](CC(C)C)N(C)C(=O)C[C@@H](C)NC(=O)[C@H](C(C)C)N(C)C(=O)C2(CCCC2)NC(=O)[C@@H]2CCCN2C(=O)[C@H](CCc2ccc(C(F)(F)F)c(Cl)c2)NC(=O)CN(C)C(=O)[C@H](CC2CC2)N(C)C(=O)CN(C)C(=O)CN(C)C1=O` [Compound 511] (cyclo([Ac5c][NMeV][d(β3hA)][NMeL]I[Sar][Sar][NMeAla(cPr)][Sar][hPhe(3-Cl-4-CF3)]P)) is above 500 nM; for `CC[C@H](C)[C@@H]1NC(=O)[C@H](CC(C)C)N(C)C(=O)C[C@@H](C(=O)N2CCCCC2)N(C)C(=O)[C@H](C2CCCCC2)N(C)C(=O)C2(CCCC2)NC(=O)[C@@H]2Cc3ccccc3N2C(=O)[C@H](CCc2ccc(C(F)(F)F)c(Cl)c2)NC(=O)CN(C)C(=O)[C@H](CC2CCCCC2)N(C)C(=O)CN(C)C(=O)CN(C)C1=O` [Compound 514] ([NMeL]I[Sar][Sar][NMeCha][Sar][hPhe(3-Cl-4-CF3)][X72][Ac5c][NMeChg][NMeD]-Piperidide; lactam N-11) it is above 500 nM.

Turning to `CC[C@H](C)[C@@H]1NC(=O)[C@H](CC(C)C)N(C)C(=O)C[C@@H](C(=O)N2CCC2)N(C)C(=O)[C@H](C2CCCC2)N(C)C(=O)C2(CCCC2)NC(=O)[C@@H]2CCCN2C(=O)[C@H](CCc2ccc(C(F)(F)F)c(Cl)c2)NC(=O)CN(C)C(=O)[C@H](CC2CCCCC2)N(C)C(=O)[C@@H]2CCN2C(=O)[C@H](C)N(C)C1=O` [Compound 515] ([NMeL]I[NMeA][Aze][NMeCha][Sar][hPhe(3-Cl-4-CF3)]P[Ac5c][NMeGly(cPent)][NMeD]-{Azetidin(1-yl)}; lactam N-11), the IC50 was at most 20 nM. The figure for `CC[C@H](C)[C@@H]1NC(=O)[C@H](C)N(C)C(=O)C[C@@H](C)NC(=O)[C@H](C(C)C)N(C)C(=O)C2(CCCC2)NC(=O)[C@@H]2CCCN2C(=O)[C@H](CCc2ccc(C(F)(F)F)c(Cl)c2)NC(=O)[C@@H](C)N(C)C(=O)[C@H](CC2CCCCC2)N(C)C(=O)[C@@H]2CCCN2C(=O)CN(C)C1=O` [Compound 516] (cyclo([Ac5c][NMeV][d(β3hA)][NMeA]I[Sar]P[NMeCha][dNMeA][hPhe(3-Cl-4-CF3)]P)) is above 500 nM. The figure for `CC[C@H](C)[C@@H]1NC(=O)[C@H](CC(C)C)N(C)C(=O)C[C@@H](C(=O)N2CCCCC2)N(C)C(=O)[C@H](C(C)C)N(C)C(=O)C(C)(C)NC(=O)[C@@H]2CCCN2C(=O)[C@H](CCc2ccc(C(F)(F)F)c(F)c2)NC(=O)CN(C)C(=O)[C@H](CC2CCCCC2)N(C)C(=O)CN(C)C(=O)CN(C)C1=O` [Compound 522] ([NMeL]I[Sar][Sar][NMeCha][Sar][hPhe(3-F,4-CF3)]P[Aib][NMeV][NMeD]-Piperidide; lactam N-11) is above 500 nM.
